Laboratory results as given in patent US5250554A, “Benzimidazole derivatives useful as angiotensin II inhibitors” (Takeda Chemical Industries, Ltd., priority 1989, dated 1993).
Structures can show the parent of a compound that is named as a salt. Where two headings read alike, the source gives them in different places.

Key:
[1] = biological target: T1, A-II receptor (Bos taurus, UniProt P25104); assay: Inhibition of binding of angiotensin-II to angiotensin receptor (radioreceptor assay, 125I-A-II); set-up: species or system bovine (membrane fraction of bovine adrenal cortex); conditions: for inhibition at 10 µM: read-out: Radioreceptor assay, inhibition of A-II binding, 1 × 10^-5 M; for inhibition at 1 µM: read-out: Radioreceptor assay, inhibition of A-II binding, 1 × 10^-6 M
T1 construct: An A-II receptor was prepared from the membrane fraction of bovine adrenal cortex; from tissue; host or cells: bovine adrenal cortex, membrane fraction
T1 sequence (P25104 1-359): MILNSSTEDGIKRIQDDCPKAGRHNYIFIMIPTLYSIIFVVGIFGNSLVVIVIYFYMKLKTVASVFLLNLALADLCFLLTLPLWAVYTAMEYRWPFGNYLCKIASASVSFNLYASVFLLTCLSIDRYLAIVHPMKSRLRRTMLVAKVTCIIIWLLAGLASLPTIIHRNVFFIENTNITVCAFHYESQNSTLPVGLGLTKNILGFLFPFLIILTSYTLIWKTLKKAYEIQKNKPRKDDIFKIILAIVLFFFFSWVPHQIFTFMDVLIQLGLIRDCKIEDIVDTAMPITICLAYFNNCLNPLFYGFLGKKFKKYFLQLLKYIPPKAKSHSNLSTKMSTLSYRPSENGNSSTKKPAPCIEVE
Experimental: Inhibition of binding of angiotensin-II to angiotensin receptor
An A-II receptor was prepared from the membrane fraction of bovine adrenal cortex.

[2] = test system: pressor action of A-II; assay: Inhibitory effect on pressor action of A-II (oral drug, i.v. A-II 100 ng/kg); format: in vivo, Jcl:SD rats (9 week old, male); conditions: rats, A-II 100 ng/kg i.v.; for inhibition in vivo at 3 mg/kg / inhibition in vivo at 30 mg/kg: Rattus norvegicus, po; for inhibition in vivo at 3 mg/kg: read-out: Pressor response to A II (p.o.), 3 mg/kg (percent inhibition); for inhibition in vivo at 30 mg/kg: read-out: Pressor response to A II (p.o.), 30 mg/kg (percent inhibition)
Excerpt: Inhibitory effect of the compound of this invention on pressor action of A-II
Jcl:SD rats (9 week old, male) were used. On the day prior to that of the experiment, these animals were applied with cannulation into the femoral artery and vein under anesthesia with pentobarbital Na. The animals were fasted but allowed free access to drinking water until the experiment was started. On the day of conducting the experiment, the artery cannula was connected with a blood-pressure transducer, and the average blood pressure was recorded by means of polygraph. […] The drugs were orally administered, and then, at each point of the measurement, A-II was administered intravenously, and the pressor action was similarly measured. By comparing the pressor action before and after administration of the drug, the percent inhibition by the drug on A-II-induced pressor action was evaluated.

[3] = 1 × 10^-5 M, bovine adrenal cortex membrane, 125I-A-II, 1 h room temperature
[4] = 1 × 10^-6 M, bovine adrenal cortex membrane, 125I-A-II, 1 h room temperature

Row | SMILES | inhibition at 10 µM [1, 3] | inhibition at 1 µM [1, 4] | inhibition in vivo at 3 mg/kg ([2]; 3 mg/kg p.o.) | inhibition in vivo at 30 mg/kg ([2]; 30 mg/kg p.o.) | inhibition at 10 µM [1] | inhibition at 1 µM [1] | Radioreceptor assay, inhibition of A-II binding, 1 × 10^-5 M [1, 3] | Radioreceptor assay, inhibition of A-II binding, 1 × 10^-6 M [1, 4] | Pressor response to A II (p.o.), 3 mg/kg (percent inhibition) ([2]; 3 mg/kg p.o.) | Pressor response to A II (p.o.), 30 mg/kg (percent inhibition) ([2]; 30 mg/kg p.o.)
1 | CCCCc1nc2ccccc2n1Cc1ccc(-c2ccccc2-c2nnn[nH]2)cc1 [Reference Example 17, 2-Butyl-1-[[2'-(1H-tetrazol-5-yl)biphenyl-4-yl]methyl]benzimidazole, reference compound] | 87% | 52% | < 30% | < 30% |  |  |  |  |  | 
2 | CCCCc1nc2c(C(=O)OC)cccc2n1Cc1ccc(-c2ccccc2-c2nn[nH]n2)cc1 [Reference Example 29, reference compound] | 61% | 6% |  | < 30% |  |  |  |  |  | 
3 | CCCCc1nc2cccc(C(=O)O)c2n1Cc1ccc(-c2ccccc2-c2nnn[nH]2)cc1 [Working Example 1, 2-Butyl-1-[[2'-(1H-tetrazol-5-yl)biphenyl-4-yl]methyl]benzimidazole-7-carboxylic acid] | 95% | 78% | > 70% | > 70% |  |  |  |  |  | 
4 | CCCCc1nc2cccc(C(=O)O)c2n1Cc1ccc(-c2ccccc2-c2nn[nH]n2)cc1 [Working Example 4, 2-Butyl-1-[[2'-(1H-tetrazol-5-Yl)biphenyl-4-yl]methyl]benzimidazole-7-carboxylic acid 2-sodium salt] | 91% | 71% | > 70% | > 70% |  |  |  |  |  | 
5 | CCCc1nc2cccc(C(=O)O)c2n1Cc1ccc(-c2ccccc2-c2nn[nH]n2)cc1 [Working Example 7, 2-Propyl-1-[[2'-(1H-tetrazol-5-yl)bichenyl-4-yl]methyl]benzimidazole-7-carboxylic acid] | 95% | 79% | > 70% | > 70% |  |  |  |  |  | 
6 | CCCCc1nc2cc(C)cc(C(=O)OC)c2n1Cc1ccc(-c2ccccc2-c2nn[nH]n2)cc1 [Working Example 9] | 92% | 45% | 50 to 70% |  |  |  |  |  |  | 
7 | CCCCc1nc2cc(C)cc(C(=O)O)c2n1Cc1ccc(-c2ccccc2-c2nn[nH]n2)cc1 [Working Example 10, 2-Butyl-5-methyl-1-[[2,-(1H-tetrazol-5-yl)biphenyl-4-yl]methyl]benzimidazole-7-carboxylic acid] | 90% | 40% | > 70% | > 70% |  |  |  |  |  | 
8 | CCCCc1nc2cc(Cl)cc(C(=O)OC)c2n1Cc1ccc(-c2ccccc2-c2nnn[nH]2)cc1 [Working Example 12, Methyl 2-butyl-5-chloro-1-[[2'-(1H-tetrazol-5-yl)biphenyl-4-yl]methyl]benzimidazole-7-carboxylate] | 91% | 65% | 50 to 70% | > 70% |  |  |  |  |  | 
9 | CCCCc1nc2cccc(C(=O)OCC)c2n1Cc1ccc(-c2ccccc2-c2nnn[nH]2)cc1 [Working Example 14, Ethyl 2-butyl-1-[[2'-(1H-tetrazol-5-yl)biphenyl-4-yl]methyl]benzimidazole-7-carboxylate] | 82% | 50% | 50 to 70% | > 70% |  |  |  |  |  | 
10 | CCCCc1nc2cccc(CO)c2n1Cc1ccc(-c2ccccc2-c2nnn[nH]2)cc1 [Working Example 16, 2-Butyl-7-hydroxymethyl-1-[[2'-(1H-tetrazol-5-yl)biphenyl-4-yl]methyl]benzimidazole] | 90% | 67% |  | > 70% |  |  |  |  |  | 
11 | CCCCc1nc2cccc(CC(=O)OCC)c2n1Cc1ccc(-c2ccccc2-c2nn[nH]n2)cc1 [Working Example 17, Ethyl [[2-butyl-1-[2'-(1H-tetrazol-5-Yl)biphenyl-4-yl]methyl]benzimidazol-7-yl]acetate] | 93% | 75% | 30 to 50% |  |  |  |  |  |  | 
12 | CCCCc1nc2cccc(COC)c2n1Cc1ccc(-c2ccccc2-c2nnn[nH]2)cc1 [Working Example 19, 2-butyl-7-methoxymethyl-1-[[2'-(1H-tetrazol-5-yl)biphenyl-4-yl]methyl]benzimidazole sodium salt] |  |  | 30 to 50% |  | 90% | 60% |  |  |  | 
13 | CCc1nc2cccc(C(=O)O)c2n1Cc1ccc(-c2ccccc2-c2nn[nH]n2)cc1 [Working Example 27] | 96% | 91% | > 70% | > 70% |  |  |  |  |  | 
14 | CC(C)c1nc2cccc(C(=O)O)c2n1Cc1ccc(-c2ccccc2-c2nnn[nH]2)cc1 [Working Example 28, 2-Isopropyl-1-[[2'-(1H-tetrazol-5-yl)biphenyl-4-yl]methyl]benzimidazole-7-carboxylic acid] | 98% | 88% | 30 to 50% |  |  |  |  |  |  | 
15 | CCCCc1nc2cccc(C(=O)O)c2n1Cc1ccc(-c2ccccc2-c2nn[nH]n2)cc1 [Working Example 29, 2-Butyl-1-[[2'-(1H-tetrazol-5-yl)biphenyl-4-yl]methyl]benzimidazole-7-carboxylic acid 2.potassium salt] |  |  |  |  |  |  | 87 | 60 | +++ (+++ ≥70%) | +++ (+++ ≥70%)
16 | CCCc1nc2cccc(C(=O)OC)c2n1Cc1ccc(-c2ccccc2-c2nnn[nH]2)cc1 [Working Example 31, Methyl 2-propyl-1-[[2'-(1H-tetrazol-5-yl)biphenyl-4-yl)methyl]benzimidazole-7-carboxylate] | 92% | 78% | > 70% | > 70% |  |  |  |  |  | 
17 | CCCCc1nc2cccc(C(=O)OC)c2n1Cc1ccc(-c2ccccc2-c2nnn[nH]2)cc1 [Working Example 34, Methyl 2-butyl-1-[[2'-(1H-tetrazol-5-yl)biphenyl-4-yl]methyl]benzimidazole-7-carboxylate] | 90% | 66% | > 70% | > 70% |  |  |  |  |  | 
18 | CCCCc1nc2cccc(C(=O)OCOC(=O)C(C)(C)C)c2n1Cc1ccc(-c2ccccc2-c2nn[nH]n2)cc1 [Working Example 36] | 95% | 86% | > 70% | > 70% |  |  |  |  |  | 
19 | CCCCc1nc2cccc(C(=O)OC(C)OC(=O)OC3CCCCC3)c2n1Cc1ccc(-c2ccccc2-c2nn[nH]n2)cc1 (stereo not drawn) [Working Example 37] | 94% | 65% | > 70% | > 70% |  |  |  |  |  | 
20 | CCCCc1nc2cccc(C(=O)OCc3oc(=O)oc3C)c2n1Cc1ccc(-c2ccccc2-c2nn[nH]n2)cc1 [Working Example 39] | 97% | 83% | > 70% | > 70% |  |  |  |  |  | 
21 | COCc1nc2cccc(C(=O)O)c2n1Cc1ccc(-c2ccccc2-c2nnn[nH]2)cc1 [Working Example 49, 2-Methoxymethyl-1-[[2'-(1H-tetrazol-5-yl)biphenyl-4-yl]methyl]benzimidazole-7-carboxylic acid] | 73% | 35% | > 70% | > 70% |  |  |  |  |  | 
22 | CSCc1nc2cccc(C(=O)O)c2n1Cc1ccc(-c2ccccc2-c2nnn[nH]2)cc1 [Working Example 51, 2-Methylthiomethyl-1-[[2'-(1H-tetrazol-5-yl)biphenyl-4-yl]methyl]benzimidazole-7-carboxylic acid] | 76% | 45% | > 70% | > 70% |  |  |  |  |  | 
23 | CCCCc1nc2ccc(OC)cc2n1Cc1ccc(-c2ccccc2-c2nn[nH]n2)cc1 [compound 19, reference compound] | 88% | 47% | < 30% |  |  |  |  |  |  | 
24 | CCCCc1nc2ccccc2n1Cc1ccc(-c2ccccc2C(=O)O)cc1 [compound 26, 2-[4-(2-Butylbenzimidazol-1-yl)methylphenyl]benzoic acid, reference compound] | 87% | 48% |  |  |  |  |  |  |  | 
